The text below walks through data of patent US20260008768A1, “UREA DERIVATIVES FOR INHIBITING NLRP3 AND USES THEREOF” (VENTUS THERAPEUTICS U.S., INC., priority 2023, published 2026).

A value given as a limit tells only on which side of the number the result lay.

The target of this experiment is human NLRP3 (Homo sapiens, UniProt Q96P20). Kind of experiment: Scintillation Proximity (SPA) NLRP3 Assay, displacement of 3H-MCC950. Format: binding. Conditions: Table B, activity class; displacement of 3H-MCC950 from human NLRP3. The protocol:
Improved NLRP3 binding correlates with increased affinity for NLRP3 protein and, by extension, increased ability to interfere with its function.
SPA experiments were conducted in a total volume of 20 μL assay buffer containing 20 mM HEPES pH 7.5, 150 mM NaCl, 5 mM MgCl2, 0.01% (v/v) Tween-20, 0.01% (w/v) bovine serum albumin (BSA) and 100 μM of adenosine diphosphate (ADP). A human NLRP3 protein (350 nM) (see, e.g., Sharif et al., Nature (2019) 570:338-343; Hochheiser et al., Nature (2022) 604:184-189; Adreeva et al., Cell (2021) 184:6299-6312; Wang et al., J Exp. Med. (2021) 219:e20211147) was incubated with various concentration of compounds in 5% dimethyl sulfoxide (DMSO) final for 15 minutes at room temperature in a white half-area 96 well OptiPlate (PerkinElmer #6002290) before adding 125 nM final of 3H-MCC950. After the addition of radiolabeled MCC950, the plate was incubated for 60 minutes at room temperature before adding 0.25 mg/ml of copper-coated polyvinyltoluene SPA beads (PerkinElmer #RPNQ0095). The plate was then transferred to a microplate counter (PerkinElmer 2450 Microbeta) to collect binding data. Binding data was analyzed 6 hrs post-PVT bead addition to allow sufficient time to reach equilibrium. Specific binding was calculated from averaged duplicates by subtracting signal from wells without NLRP3 protein.
SPA NLRP3 IC50 assay results are provided in Table B. “A” activity=<1 uM; “B” activity=1-10 uM; “C” activity=>10-50 uM; “D” activity=>50 uM-100 uM; and “E” activity=>100 uM.

Chain of human NLRP3 (Q96P20 whole entry): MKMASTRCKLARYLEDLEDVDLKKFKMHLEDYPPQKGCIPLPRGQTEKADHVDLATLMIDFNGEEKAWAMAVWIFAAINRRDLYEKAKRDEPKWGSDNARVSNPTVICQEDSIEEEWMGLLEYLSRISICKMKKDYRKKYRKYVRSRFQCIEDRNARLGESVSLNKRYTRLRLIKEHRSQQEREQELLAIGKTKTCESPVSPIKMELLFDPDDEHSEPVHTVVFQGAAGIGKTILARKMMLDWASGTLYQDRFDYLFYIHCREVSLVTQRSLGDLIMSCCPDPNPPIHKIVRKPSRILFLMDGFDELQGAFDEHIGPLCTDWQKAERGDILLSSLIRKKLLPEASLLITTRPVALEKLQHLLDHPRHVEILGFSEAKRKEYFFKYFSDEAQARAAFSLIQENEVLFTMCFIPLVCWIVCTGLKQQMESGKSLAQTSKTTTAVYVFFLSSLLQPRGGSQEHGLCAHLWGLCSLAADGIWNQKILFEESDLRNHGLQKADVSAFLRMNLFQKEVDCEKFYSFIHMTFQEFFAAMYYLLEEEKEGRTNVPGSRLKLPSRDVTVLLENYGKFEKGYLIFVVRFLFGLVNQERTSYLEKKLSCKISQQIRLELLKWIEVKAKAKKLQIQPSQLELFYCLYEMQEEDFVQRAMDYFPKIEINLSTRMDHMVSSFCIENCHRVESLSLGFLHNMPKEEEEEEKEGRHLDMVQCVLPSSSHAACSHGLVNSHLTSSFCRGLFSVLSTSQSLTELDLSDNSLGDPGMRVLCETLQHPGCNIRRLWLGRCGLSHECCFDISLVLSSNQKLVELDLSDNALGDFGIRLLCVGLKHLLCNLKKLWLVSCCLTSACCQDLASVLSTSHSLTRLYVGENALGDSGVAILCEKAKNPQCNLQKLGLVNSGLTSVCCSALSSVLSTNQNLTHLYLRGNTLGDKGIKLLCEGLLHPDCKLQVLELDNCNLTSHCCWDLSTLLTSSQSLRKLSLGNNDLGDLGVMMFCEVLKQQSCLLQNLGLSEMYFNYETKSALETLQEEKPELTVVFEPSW

In turn, `C[C@H]1C[C@H](NC(=O)N(C)c2ccc(OC(F)F)cc2)[C@@H]2CC[C@H]1N2c1nnn[nH]1` (single isomer, unassigned) [42D*] yielded a 50% inhibitory concentration (IC50) of 10 to 50 µM.
With `CCN(C(=O)N[C@@H]1C[C@@H](C)CCN(c2nnn[nH]2)C1)c1ccc(OC(F)(F)F)cc1` (single isomer, unassigned) [43C*] the figure was 10 to 50 µM.
`C[C@@H]1CCN(c2nnn[nH]2)C[C@@H](NC(=O)N(C)c2ccc(C3CC3)c(F)c2)C1` (single isomer, unassigned) [23B*]: the IC50 lay within 1 to 10 µM.
Take `C[C@H]1CCN(c2nnn[nH]2)C[C@H](NC(=O)N(C)c2c(F)cc(C3CC3)cc2F)C1` (single isomer, unassigned) [20C*]: the IC50 is 10 to 50 µM.
Under `C[C@H]1C[C@H](NC(=O)N(C)c2ccc(OC(F)F)c(F)c2)[C@@H]2CC[C@H]1N2c1nnn[nH]1` (single isomer, unassigned) [52D*] stands 10 to 50 µM; under `C[C@@H]1CCN(c2nnn[nH]2)C[C@@H](NC(=O)N(C)c2ccc(C(F)(F)F)c(F)c2F)C1` (single isomer, unassigned) [21B*], 1 to 10 µM; under `C[C@@H]1CCN(c2nnn[nH]2)C[C@@H](NC(=O)N(C)c2ccc(OC(F)(F)F)c(F)c2)C1` (single isomer, unassigned) [14B*], 1 to 10 µM.
With `C[C@@H]1CCN(c2nnn[nH]2)C[C@@H](NC(=O)N(C)c2ccc(OC(F)(F)F)cc2)C1` (single isomer, unassigned) [10B*] the figure was 1 to 10 µM; with `C[C@H]1C[C@H](NC(=O)N(C)c2c(F)cc(OC(F)F)cc2F)[C@@H]2CC[C@H]1N2c1nnn[nH]1` (single isomer, unassigned) [61D*], 10 to 50 µM.
Under `C[C@@H]1C[C@H](NC(=O)N(C)c2c(F)cc(C3CC3)cc2F)[C@H]2CC[C@@H]1N2c1nnn[nH]1` (single isomer, unassigned) [60B*] stands more than 100 µM.
`C[C@@H]1CCN(c2nnn[nH]2)C[C@@H](NC(=O)N(CC2CC2)c2ccc(OC(F)(F)F)cc2)C1` (single isomer, unassigned) [44B*] gave an IC50 of 1 to 10 µM.
Regarding `C[C@H]1C[C@@H](NC(=O)N(C)c2ccc(C(F)F)cc2F)[C@@H]2CC[C@H]1N2c1nnn[nH]1` (single isomer, unassigned) [55C*], the 50% inhibitory concentration (IC50) was 50 to 100 µM.
`C[C@H]1CCN(c2nnn[nH]2)C[C@@H](NC(=O)N(C)c2ccc(OC(F)F)cc2)C1` (single isomer, unassigned) [11D*]: the IC50 lay in the range of 1 to 10 µM.
In the case of `C[C@H]1CCN(c2nnn[nH]2)C[C@H](NC(=O)N(C)c2ccc(OC(F)(F)F)c(OC(F)F)c2)C1` (single isomer, unassigned) [25C*], the IC50 fell in the range of 1 to 10 µM.
Compound `C[C@@H]1CCN(c2nnn[nH]2)C[C@@H](NC(=O)N(C)c2ccc(C(F)(F)F)cc2F)C1` (single isomer, unassigned) [13B*] displayed an IC50 of 1 to 10 µM.
The compound `C[C@H]1C[C@@H](NC(=O)N(C)c2ccc(C(F)F)c(F)c2)[C@@H]2CC[C@H]1N2c1nnn[nH]1` (single isomer, unassigned) [53C*] had an IC50 of more than 100 µM.
In turn, `CCN(C(=O)N[C@H]1C[C@H](C)[C@H]2CC[C@@H]1N2c1nnn[nH]1)c1ccc(OC(F)F)cc1F` (single isomer, unassigned) [65D*] returned a 50% inhibitory concentration (IC50) of 10 to 50 µM.
Compound `C[C@H]1CCN(c2nnn[nH]2)C[C@@H](NC(=O)N(C)c2ccc(C3CC3)c(F)c2)C1` (single isomer, unassigned) [23D*] returned an IC50 of 1 to 10 µM.
`C[C@@H]1CCN(c2nnn[nH]2)C[C@@H](NC(=O)N(C)c2ccc(Cl)cc2)C1` (single isomer, unassigned) [4B*]: the concentration for half-maximal inhibition (IC50) lay within 1 to 10 µM.
`CC1CCN(c2nnn[nH]2)CC(NC(=O)N(C)c2ccc(Cl)cc2)C1` (single isomer, unassigned) [4D*] gave a concentration for half-maximal inhibition (IC50) of 1 to 10 µM.
Under `C[C@H]1C[C@@H](NC(=O)N(C)c2ccc(C(F)(F)F)c(F)c2)[C@@H]2CC[C@H]1N2c1nnn[nH]1` (single isomer, unassigned) [49C*] stands 50 to 100 µM.

In general, IC50 refers to the concentration needed to halve the response being measured. The low end stands for greater potency in that assay, the high end for weaker potency in that assay.
